Literature values in patent US6369046B1, “Methods for treating dementia” (The Board of Trustees of the Leland Stanford Junior …, priority 1998, dated 2002).

Columns and labels:
[1] = molecular target: T1, glucocorticoid (GR) receptor (Homo sapiens, UniProt P04150); settings: Bocquel (1993) for RU009; cited from earlier work
T1 sequence (P04150 1-777): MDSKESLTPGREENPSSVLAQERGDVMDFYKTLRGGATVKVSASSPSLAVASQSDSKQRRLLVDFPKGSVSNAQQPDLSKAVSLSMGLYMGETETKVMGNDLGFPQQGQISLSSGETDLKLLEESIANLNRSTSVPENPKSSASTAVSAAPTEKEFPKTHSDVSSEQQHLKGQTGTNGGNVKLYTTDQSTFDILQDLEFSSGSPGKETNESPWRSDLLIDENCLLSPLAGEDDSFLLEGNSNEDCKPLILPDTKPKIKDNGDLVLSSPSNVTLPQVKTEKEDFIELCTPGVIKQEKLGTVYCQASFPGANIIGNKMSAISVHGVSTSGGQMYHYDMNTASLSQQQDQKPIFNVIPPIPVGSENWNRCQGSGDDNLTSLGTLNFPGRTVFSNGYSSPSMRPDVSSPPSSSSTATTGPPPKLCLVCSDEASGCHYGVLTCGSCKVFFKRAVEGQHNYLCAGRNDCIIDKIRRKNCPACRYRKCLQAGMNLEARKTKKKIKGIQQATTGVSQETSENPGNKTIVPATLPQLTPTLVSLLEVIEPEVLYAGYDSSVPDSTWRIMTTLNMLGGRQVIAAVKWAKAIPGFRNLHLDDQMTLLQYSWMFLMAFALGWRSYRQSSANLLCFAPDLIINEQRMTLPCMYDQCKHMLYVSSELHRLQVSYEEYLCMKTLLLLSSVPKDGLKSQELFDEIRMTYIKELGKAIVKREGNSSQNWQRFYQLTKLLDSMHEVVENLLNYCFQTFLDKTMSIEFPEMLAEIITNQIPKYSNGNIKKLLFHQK

progesterone receptor = molecular target: T2, progesterone receptor (Homo sapiens, UniProt P06401); settings: cited from earlier work
T2 sequence (P06401 1-933): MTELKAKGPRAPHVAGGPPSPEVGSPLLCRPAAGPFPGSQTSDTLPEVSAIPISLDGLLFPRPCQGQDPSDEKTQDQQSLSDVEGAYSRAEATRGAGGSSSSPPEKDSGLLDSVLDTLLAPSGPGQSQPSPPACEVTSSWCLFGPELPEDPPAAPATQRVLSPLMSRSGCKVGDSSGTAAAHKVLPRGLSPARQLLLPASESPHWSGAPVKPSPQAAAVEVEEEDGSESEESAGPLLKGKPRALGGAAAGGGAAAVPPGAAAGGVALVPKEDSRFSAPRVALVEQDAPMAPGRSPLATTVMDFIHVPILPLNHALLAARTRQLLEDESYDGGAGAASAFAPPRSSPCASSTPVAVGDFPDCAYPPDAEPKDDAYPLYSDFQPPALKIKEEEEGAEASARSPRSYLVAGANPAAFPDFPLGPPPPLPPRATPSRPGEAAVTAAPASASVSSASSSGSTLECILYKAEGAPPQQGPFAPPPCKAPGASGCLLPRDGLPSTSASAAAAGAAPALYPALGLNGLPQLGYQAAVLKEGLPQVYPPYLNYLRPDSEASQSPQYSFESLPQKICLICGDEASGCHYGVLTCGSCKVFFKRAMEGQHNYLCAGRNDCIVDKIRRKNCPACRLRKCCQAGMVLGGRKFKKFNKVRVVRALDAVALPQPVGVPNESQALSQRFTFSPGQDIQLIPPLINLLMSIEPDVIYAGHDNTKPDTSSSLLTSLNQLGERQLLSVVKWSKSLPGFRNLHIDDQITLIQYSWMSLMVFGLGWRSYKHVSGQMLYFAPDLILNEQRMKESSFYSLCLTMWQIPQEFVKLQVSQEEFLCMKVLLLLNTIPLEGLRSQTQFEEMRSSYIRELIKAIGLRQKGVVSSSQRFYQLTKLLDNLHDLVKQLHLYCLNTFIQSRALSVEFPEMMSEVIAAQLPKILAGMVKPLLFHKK

[2] = Kawai (1989) supra; cited from earlier work

| Compound | GR antagonism [1] | progesterone receptor antagonism (progesterone receptor) | fraction of the daily dose excreted in the urine [2] |
| --- | --- | --- | --- |
| CC#C[C@]1(O)CC[C@H]2[C@@H]3CCC4=CC(=O)CCC4=C3[C@@H](c3ccc(OCCN(C)C)cc3)C[C@@]21C [RU009, 11-beta-(4-dimethyl-aminoethoxyphenyl)-1 7-alpha-(propynyl-17 beta-hydroxy-4,9-estradien-3-one)] | GR antagonist effects | – | – |
| CC#C[C@]1(O)CC[C@H]2[C@@H]3CCC4=CC(=O)CCC4=C3[C@@H](c3ccc(N(C)C)cc3)C[C@@]21C [mifepristone, 17-beta-hydroxy-11-beta-(4-dimethyl-aminophenyl)-17-alpha-(1-propynyl)-estra-4,9-dien-3-one] | powerful antagonist | powerful antagonist | less than 0.5 % of the daily dose |
